The results in this text go back to publication PMC8113459, “Selective inhibition of cullin 3 neddylation through covalent targeting DCN1 protects mice from acetaminophen-induced liver toxicity” (Nature Communications, 2021).

In experiment [1] the target is T1, DCN1 (Homo sapiens, UniProt Q96GG9). The experiment is described as follows: Intact-protein mass spectrometric analysis, Method B (DCN1). In kind it is binding. The note with it: 1 h incubation, 100 nM protein. As for the experimental part: Method B: Recombinant DCN1 or DCN3 protein (100 nM in 25 mM Tris 7.5, 200 mM NaCl, 1 mM DTT buffer) was incubated with 1.2-fold excess of the DCN1 inhibitors at 37 °C for 10 min, 1 h, or 3 h. Following incubation, the protein was analyzed by LC–MS (Agilent Q-TOF 6545) under the following conditions: fragmentor voltage, 300 V; skimmer voltage, 75 V; nozzle voltage, 100 V; sheath gas temperature, 350 °C; and drying gas temperature, 325 °C. MassHunter Qualitative Analysis software (Agilent) was used to analyze the data. Intact protein masses were obtained using the maximum entropy deconvolution algorithm. The mass spectrometry data in Supplementary Figs. 14–17 were generated by Method B.
Target sequence in this assay (Q96GG9 whole entry, the tested form may be a part): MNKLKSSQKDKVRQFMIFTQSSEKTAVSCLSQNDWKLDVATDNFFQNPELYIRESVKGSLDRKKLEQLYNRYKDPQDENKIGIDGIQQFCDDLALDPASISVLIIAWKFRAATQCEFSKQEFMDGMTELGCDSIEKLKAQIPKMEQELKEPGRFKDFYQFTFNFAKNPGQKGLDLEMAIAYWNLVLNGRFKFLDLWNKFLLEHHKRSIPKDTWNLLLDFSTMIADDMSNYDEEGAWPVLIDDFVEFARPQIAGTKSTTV

The target of experiment [2] is T1, DCN1. The experiment is described as follows: Competitive FP binding assay. As for the experimental part:
Competitive FP binding assay was performed as previously described. The IC50 and Ki values of DI-1548 and DI-1548DD were determined in competitive binding experiments. Mixtures of preincubated protein/probe complex solution in the assay buffer (196 μL) and compounds in DMSO (4 μL) were added into assay plates which were incubated at room temperature for 30 min with gentle shaking. The concentrations of DCN1 protein and fluorescent probe were 50 and 5 nM, respectively. […] FP values in millipolarization units were measured using the Infinite M-1000 plate reader (Tecan U.S., Research Triangle Park, NC) in Microfluor 1 96-well, black, round-bottom plates (Thermo Fisher Scientific, Waltham, MA) at an excitation wavelength of 485 nm and an emission wavelength of 530 nm. IC50 values were determined by nonlinear regression fitting of the competition curves using the dose–response inhibition equation (four parameters, variable slopes) included in the Prism/GraphPad software. Ki values were calculated using methods described previously.
Target sequence in this assay (Q96GG9 whole entry, the tested form may be a part): as above

The target of experiment [3] is T1, DCN1. The experiment is described as follows: High-resolution LC-tandem mass spectrometry of tryptic peptides. The note with it: for Modifications (DI-548 adduct on DCN1 tryptic peptide): B2 Sequest HT (DI-548) sample, confidence High, not found in Apo sample. As for the experimental part:
Equal amounts of proteins (10 μg) were denatured in 8 M urea. Cysteines were reduced with 10 mM DTT at 45 °C for 30 min and alkylated using 50 mM chloroacetamide (RT, 30 min). Upon dilution of urea to <1.2 M, digestion with 250 ng of sequencing grade, modified trypsin (Promega) was carried out overnight at 37 °C. Reaction was terminated by acidification with trifluoroacetic acid (0.1% v/v) and peptides were purified using SepPak C18 cartridge following the manufacturer’s protocol (Waters Corp). An aliquot of the resulting peptides (~2 µg) was resolved on a nanocapillary reverse phase column (Acclaim PepMap C18, 2 μm, 50 cm, Thermo Fisher Scientific) using 0.1% formic acid/acetonitrile gradient at 300 nL/min and directly introduced in to Q Exactive HF mass spectrometer (Thermo Fisher Scientific, San Jose, CA). MS1 scans were acquired at 60 K resolution (AGC target = 3e^6, max IT = 50 ms). Data-dependent high-energy C-trap dissociation MS/MS spectra were acquired for the 20 most abundant ions (Top20) following each MS1 scan (15 K resolution; AGC target = 1e^5; relative CE ~ 28%). Proteins were identified by searching the data against restricted database containing DCN1 protein sequence and common contaminants using Sequest HT (Proteome Discoverer v2.4, Thermo Fisher Scientific). Search parameters included MS1 mass tolerance of 10 ppm and fragment tolerance of 0.02 Da; two missed cleavages were allowed; carbamidomethylation (+57.02146 Da) and DI-1548 adduct (+510.2665 Da) of cysteine, and oxidation of methionine, deamidation of asparagine and glutamine were considered as potential modifications. False discovery rate (FDR) was determined using target decoy validator and proteins/peptides with an FDR of ≤1% were retained for further analysis. The DI-1548 modified peptide PSMs were manually verified.
Target sequence in this assay (Q96GG9 58-259 limits assumed): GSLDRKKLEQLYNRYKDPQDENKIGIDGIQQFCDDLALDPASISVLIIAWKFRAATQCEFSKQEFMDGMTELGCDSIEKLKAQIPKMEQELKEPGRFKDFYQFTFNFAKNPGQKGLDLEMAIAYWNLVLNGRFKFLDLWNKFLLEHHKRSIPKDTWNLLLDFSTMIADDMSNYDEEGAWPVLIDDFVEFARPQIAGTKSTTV

Another experiment deals with HO-1 protein. The experiment is described as follows: Western blot, HO-1 protein in THLE2 cells. In kind it is cell-based, human. The note with it: THLE2, Fig. 6b. As for the experimental part:
Western blotting was performed as described previously. Treated cells were lysed by RIPA buffer supplemented with protease inhibitor. The expression level of indicated proteins was examined by immunoblotting analysis and GAPDH was used as the loading control. Antibodies were purchased commercially: cullin 1 (sc-17775, 1:500 dilution) and cullin 2 (sc-166506, 1:500 dilution) from Santa Cruz Biotech (Santa Cruz, CA); cullin 4A (PA5-14542, 1:1000 dilution), cullin 4B (PA5-50647, 1:1000 dilution), and DCN3 (DCUN1D3, PA5-44000, 1:1000 dilution) from Thermo Fisher Scientific (Wayne, MI); cullin 3 (2759, 1:1000), NRF2 (12721, 1:1000 dilution), HO-1 (70081, 1:1000 dilution), and Bim (2819, 1:1000 dilution) from Cell Signaling Technology (Boston, MA); DCN1 (GWB-E3D700, 1:1000 dilution) from GenWay Biotech (San Diego, CA); and cullin 5 (A302-173A, 1:500 dilution) from Bethyl Labs (Montgomery, TX). Results are representative of two independent experiments.
(In general: A western blot detects proteins with antibodies after separation by electrophoresis.)

Structures are written as SMILES. Values joined by “and” are separate entries in the source; they are usually repeats but may differ in a detail not shown here. Equal values may be shown once.

Take `C=C(CN1CCOCC1)C(=O)NC[C@@H](NC(=O)[C@H](Cc1nc2ccc(C(C)C)cc2s1)NC(=O)CC)C1CCCCC1` [DI-1548]: the “covalent complex formation with DCN1” value on DCN1 [1] was “rapid and complete formation”. In addition, the “FP signal of the competitive binding curve” value at DCN1 [2] (Concentration (nM) 0.016935, duplicates) is 44.2 and 44.7; at DCN1 [2] (Concentration (nM) 0.050805, duplicates) it was 43.5 and 45.8; at DCN1 [2] (Concentration (nM) 0.152416, duplicates), 44.1 and 44.8; at DCN1 [2] (Concentration (nM) 0.457247, duplicates), 43.8 and 44; on DCN1 [2] (Concentration (nM) 1.37174, duplicates) it was 41.3; on DCN1 [2] (Concentration (nM) 4.11523, duplicates), 32.5 and 31.9. Also, the “FP signal of the competitive binding curve” value on DCN1 [2] (Concentration (nM) 12.3457, duplicates) was 17.8 and 17.9; on DCN1 [2] (Concentration (nM) 37.037, duplicates) it was 15.7 and 15.4; on DCN1 [2] (Concentration (nM) 111.111, duplicates), 14.3 and 14.5; at DCN1 [2] (Concentration (nM) 333.333, duplicates), 15.3 and 15.7; on DCN1 [2] (Concentration (nM) 1000, duplicates), 16.2 and 15.8. Also, at DCN1 [2] (DCN1 50 nM, probe 5 nM, 30 min), the IC50 is 4.6 nM. Besides, at DCN1 [2] (DCN1 50 nM, probe 5 nM, 30 min), the Ki is under 1 nM. Further, the “Modifications (DI-548 adduct on DCN1 tryptic peptide)” value was 1xDI-548_Haibin [C5] at DCN1 [3] (peptide [R].AATQCEFSK.[Q], DCN_1 [77-85]); 1xCarbamidomethyl [C21]; 1xDeamidated [Q4]; 1xDI-548_Haibin [C5] on DCN1 [3] (peptide [R].AATQCEFSKQEFMDGMTELGCDSIEK.[L], DCN_1 [77-102], 1xCarbamidomethyl [C21] and 1xDeamidated [Q4]); 1xCarbamidomethyl [C21]; 1xDI-548_Haibin [C5] at DCN1 [3] (peptide [R].AATQCEFSKQEFMDGMTELGCDSIEK.[L], DCN_1 [77-102], 1xCarbamidomethyl [C21]). In addition, the “residue of DCN1 modified” value at DCN1 [3] (tryptic digested peptides) was “forms covalent bond with Cys115”.
Turning to `C=C(CN(C)C)C(=O)NC[C@@H](NC(=O)[C@H](Cc1nc2ccc(C(C)C)cc2s1)NC(=O)CC)C1CCCCC1` [DI-1859], the HO-1 protein level result in the experiment on HO-1 protein is “dose dependently upregulates”.

Broadly, the IC50 is the concentration at which inhibition is half-maximal. Low readings indicate greater potency, high ones weaker potency. As usually defined, the Ki is the dissociation constant of the complex between target and ligand, obtained from inhibition or displacement. Higher therefore signals a looser hold on the target.
